Measured values: PubChem BioAssay (NCI)
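The compound was tested at five concentrations on cells cultured in 96-well plates, with a 48-hour exposure period. GI50 marks 50% less growth. TGI is the concentration that stops growth completely.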

Key:
Assay in all cases: growth of human tumour cells (NCI), 48 h
KM12 colon = test system: KM12 colon
NCI-H460 lung = test system: NCI-H460 lung
HL-60(TB) leukemia = test system: HL-60(TB) leukemia
UACC-62 melanoma = test system: UACC-62 melanoma
OVCAR-4 ovarian = test system: OVCAR-4 ovarian
SNB-75 CNS = test system: SNB-75 CNS
SK-MEL-28 melanoma = test system: SK-MEL-28 melanoma
MALME-3M melanoma = test system: MALME-3M melanoma
NCI-H522 lung = test system: NCI-H522 lung
M14 melanoma = test system: M14 melanoma

| Compound | GI50 (KM12 colon) [µM] | TGI (KM12 colon) [µM] | GI50 (NCI-H460 lung) [µM] | TGI (NCI-H460 lung) [µM] | GI50 (HL-60(TB) leukemia) [µM] | TGI (HL-60(TB) leukemia) [µM] | GI50 (UACC-62 melanoma) [µM] | TGI (UACC-62 melanoma) [µM] | GI50 (OVCAR-4 ovarian) [µM] | TGI (OVCAR-4 ovarian) [µM] | GI50 (SNB-75 CNS) [µM] | TGI (SNB-75 CNS) [µM] | GI50 (SK-MEL-28 melanoma) [µM] | TGI (SK-MEL-28 melanoma) [µM] | GI50 (MALME-3M melanoma) [µM] | TGI (MALME-3M melanoma) [µM] | GI50 (NCI-H522 lung) [µM] | TGI (NCI-H522 lung) [µM] | GI50 (M14 melanoma) [µM] | TGI (M14 melanoma) [µM] |
| --- | --- | --- | --- | --- | --- | --- | --- | --- | --- | --- | --- | --- | --- | --- | --- | --- | --- | --- | --- | --- |
| COc1ccc(-c2c3c(N)nc(-c4ccncc4)nc3nc3c2c(C)nn3-c2ccccc2)cc1 | 8.55 | > 100 | 3.3 | > 100 | > 100 | > 100 | 4.87 | 51.9 | 3.41 | 30.8 | 3.62 | 28.4 | 4.25 | 40.5 | 14.5 | > 100 | 4.94 | 53.5 | 17.5 | > 100 |
| CC1OC(O[C@@H]2OC=C(C=O)[C@@]3(O)CC[C@H](C)[C@@H]23)C(O)C(O)C1O (stereo not given in full) |  | > 100 |  | > 100 |  | > 100 |  | > 100 |  | > 100 |  | > 100 |  | > 100 |  | > 100 |  | > 100 |  | > 100 |
| CCc1ccccc1NC(=O)C(=O)CC(=O)c1sc(Nc2ccccc2)nc1C |  | > 100 |  | > 100 |  | > 100 |  | > 100 |  | > 100 |  | > 100 |  | > 100 |  | > 100 |  | > 100 |  | > 100 |
| Cc1ccc(N=Nc2c(O)c(C(=O)O)cc3ccccc23)cc1C |  | > 100 |  | > 100 |  | > 100 |  | > 100 |  | > 100 |  | > 100 |  | > 100 |  | > 100 |  | > 100 |  | > 100 |
| CN(C)C(=O)OC(Cn1cncn1)c1ccc(Cl)cc1Cl (stereo not given) |  | > 100 |  | > 100 |  | > 100 |  | > 100 |  | > 100 |  | > 100 |  | > 100 |  | > 100 |  | > 100 |  | > 100 |
| CC(CCC(=O)O)[C@H]1CCC2[C@@H]3CC[C@@H]4CC(O)CC[C@]4(C)C3CC[C@@]21C (stereo not given in full) | 40.5 | > 100 | 31 | 97.4 | 52.3 | > 100 | 38.6 | > 100 | 31.4 | > 100 | 66.1 | > 100 | 54.4 | > 100 | > 100 | > 100 | 68.1 | > 100 | 30.4 | 97.8 |
| CC1(C)C(=NNC(=O)C[N+](C)(C)C)C(C)(C)C1=NNC(=O)C[N+](C)(C)C |  | > 100 |  | > 100 |  | > 100 |  | > 100 |  | > 100 |  | > 100 |  | > 100 |  | > 100 |  | > 100 |  | > 100 |
| CC1=Nc2ccccc2S/C1=C(/C)NNC(=O)C(N)=O |  | > 100 |  | > 100 |  | > 100 |  | > 100 |  | > 100 |  | > 100 |  | > 100 |  | > 100 |  | > 100 |  | > 100 |
| COc1ccc2nc(-c3cccs3)cc(C(O)CN3CCSCC3)c2c1 (stereo not given) |  | 74.2 |  | 45.1 |  | 5.8 |  | 38.6 |  | > 100 |  | 78.7 |  | 77.4 |  | 35 |  | 45.3 |  | 40.6 |
| COc1ccc2sc3c(NCCCN(C)C)nc4ccccc4c3c(=O)c2c1 | 1.68 | 3.18 | 1.54 | 3.03 | 1.88 | 3.91 | 1.8 | 3.24 | 1.8 | 3.82 | 1.42 | 2.8 | 1.78 | 3.2 | 1.62 | 3.18 | 1.78 | 3.46 | 1.78 | 3.33 |
| CCOC(=O)COc1ccccc1/C=C1\CCC(CN(C)C)C1=O (stereo not given) |  | 13.3 |  | 33.7 |  | 2.58 |  | 17.4 |  | 31.8 |  | 29.5 |  | 7.21 |  | 12 |  | 6.01 |  | 22.6 |
| C=CCC[CH2][Sn]([c]1ccccc1)([c]1ccccc1)[c]1ccccc1 | 1.31 | 2.58 | 1.61 | 3.06 | 5.29 | > 100 | 1.11 | 2.36 | 1.48 | 2.86 | 2.49 | 6.88 | 1.84 | 3.47 | 1.56 | 3.05 | 1.19 | 2.49 | 1.62 | 3.09 |
